We go through nine molecules from PubChem BioAssay (NCI).

“And” between values parts separate entries of the source, which are not always exact repeats. Identical values can stand only once.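 In this assay, cells in 96-well plates receive the compound at five concentrations for 48 hours. Endpoints are linearly interpolated between the surrounding concentrations. At the GI50, growth is halved. TGI: concentration producing complete growth inhibition.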

Holding throughout (assay): NCI tumour cell line growth inhibition, 48 h
Assay [1] relates to COLO 205 colon.
Assay [2] concerns DU-145 prostate.
The subject of assay [3] is HS 578T breast.
For assay [4], the system named is PC-3 prostate.
Assay [5] concerns SK-OV-3 ovarian.
For assay [6], the system named is U251 CNS.
The subject of assay [7] is UACC-257 melanoma.
The subject of assay [8] is OVCAR-8 ovarian.
Assay [9] has as its system SN12C renal.
In assay [10] the test system is T-47D breast.

Regarding `COC1=C2C[C@@H](C)C[C@@H](OC)[C@@H](O)[C@H](C)/C=C(\C)[C@@H](OC(N)=O)[C@H](OC)/C=C\C=C(/C)C(=O)NC(=CC1=O)C2=O`, the GI50 in [1] is 0.0578 µM and 0.015 µM; in assay [3], 1.31 µM and 11.8 µM and 1.25 µM. In addition, the TGI is 4.66 µM and 10.3 µM and 14.2 µM in assay [2]; 17.5 µM and 42 µM and 38.2 µM in assay [3]; 8.01 µM and 5.58 µM and 14.9 µM in assay [4]; 37.5 µM and 18 µM and 8.19 µM in [5]; 6.51 µM and 19.4 µM and 4.2 µM in assay [6]; 5.05 µM and 12.7 µM and 2.5 µM in assay [7].
Take `Cc1cc(C)c2nc3nc(C)cc(C)c3c(N)c2c1`: the GI50 is 2.78 µM in [1]; 4.72 µM in [2]; 12.7 µM in assay [3]; 4.02 µM in assay [8]; 4.1 µM in assay [5]; 4.37 µM in assay [9]. In addition, the GI50 in [10] is 5.89 µM; in [6], 4.3 µM; in assay [7], 5.71 µM. Further, the TGI in [1] is 11.8 µM; in assay [2], 17.9 µM; in [3] it was 45.2 µM; in assay [8], > 100 µM; in assay [5] it was 23.5 µM; in assay [9] it was 36.2 µM. Besides, the TGI was found to be 34.2 µM in assay [10], 26.1 µM in [6] and 29.8 µM in assay [7].
For the molecule `CCN(CC)CCCC(Cc1ccccc1)Nc1c2ccc(Cl)cc2nc2ccc(OC)cc12` (configuration not stated), the GI50 in [1] is 1.61 µM; in assay [2] it was 5 µM; in assay [8] it was 2.34 µM; in assay [4], 5.22 µM; in assay [5] it was 4.09 µM; in assay [9], 2.92 µM. Also, the GI50 in assay [10] is 1.97 µM; in assay [6], 1.56 µM; in assay [7], 1.89 µM. Also, the TGI in [1] was 3.37 µM; in assay [2] it was 18.3 µM; in assay [8], 5.26 µM; in assay [4], 19.1 µM; in [5], 13.9 µM; in [9], 10.2 µM. For the same molecule, the TGI in assay [10] was found to be 4.16 µM; in [6], 3.11 µM; in assay [7], 3.44 µM.
Consider `CSc1nc(C)c(Br)c(=O)n1C1OC(COC(C)=O)C(OC(C)=O)C(OC(C)=O)C1OC(C)=O` (configuration not stated), for which the TGI in assay [1], in [2], in [3], in assay [8], in assay [5] and in [9] was > 100 µM in each case. Also, the TGI was > 100 µM in assay [10]; > 100 µM and 49.3 µM in [6]; > 100 µM in [7]. For the same molecule, the GI50 is > 100 µM and 36 µM in assay [8]; > 91.7 µM and 42.3 µM in assay [5]; > 100 µM and 39 µM in assay [7].
H-HIIKKIRTWYRKAWHVLGKV-NH2: the GI50 is 2.11 µM in [1]; 4.26 µM in [2]; 3.56 µM in [3]; 4.74 µM in assay [8]; 2.79 µM in [4]; 6.36 µM in assay [5]. For the same molecule, the results for the GI50 in [9], in assay [6] and in assay [7] were 2.96 µM, 7.17 µM and 8.48 µM, respectively. Moreover, the TGI in [1] was 4.92 µM; in assay [2], 15.3 µM; in assay [3] it was 18.7 µM; in assay [8] it was > 100 µM; in assay [4], 9.74 µM; in assay [5], 22.2 µM. The TGI in [9] is 13 µM; in [6], > 100 µM; in assay [7] it was 59.6 µM.
For the molecule `N#C/C(=C1C=C/C(=N\O)C(Cl)=C\1)c1ccccc1`, the GI50 was 7.52 µM in assay [1]; 3.32 µM in assay [2]; 3.58 µM in [3]; 2.71 µM in assay [8]; 0.688 µM in assay [4]; 3.77 µM in assay [5]. For the same molecule, the GI50 in [9] was 3.19 µM; in assay [10], 0.6 µM; in assay [7], 4.49 µM. In addition, the TGI in assay [1] is 24.4 µM; in [2], 9.47 µM; in [3] it was 38.5 µM; in assay [8], 9.23 µM; in [4] it was 11.7 µM; in [5], 14.4 µM. Moreover, the TGI in assay [9] was 13 µM; in [10], 11.3 µM; in assay [7], 28.2 µM.
Consider `CS(=O)(=O)c1ccc(Oc2cc(F)cc(C#N)c2)c2c1[C@H](O)C(F)(F)C2`, for which the GI50 in assay [1], in assay [2], in assay [3], in assay [8], in assay [4] and in [5] was > 100 µM each time. Further, the GI50 in assay [9], in [10] and in [6] was > 100 µM throughout. Also, the TGI in assay [1], in [2], in [3], in [8], in [4] and in assay [5] was > 100 µM each time. Also, the TGI in assay [9], in assay [10] and in assay [6] was > 100 µM each time.
`COc1ccc(-c2nc(N3CCOCC3)c3sc(CN(C)c4ncc(C(=O)NO)cn4)cc3n2)cn1`: the GI50 was < 0.01 µM in [2]; < 0.0122 µM in assay [3]; < 0.01 µM in assay [8]; < 0.01 µM in [4]; 0.0168 µM in assay [9]; < 0.01 µM in assay [10]. The GI50 in [7] was < 0.01 µM. For the same molecule, the TGI turned out to be 0.141 µM in assay [2]; 0.155 µM in [3]; 0.222 µM in [8]; 0.112 µM in assay [4]; 1.27 µM in assay [9]; 0.0332 µM in [10]. Moreover, in assay [7], the TGI was determined as 0.0466 µM.
On to `C/C(=C\CCc1ccsc1)CC/C=C(\C)CCCN1CCC(CO)CC1`, for which the GI50 in [1] is 1.92 µM; in [2] it was 4.69 µM; in assay [3] it was 2 µM; in [8], 3.02 µM; in [5], 5.15 µM; in assay [9], 3.24 µM. Moreover, the GI50 in [10] is 2.22 µM; in assay [6], 1.42 µM; in assay [7], 1.84 µM. In addition, the TGI came to 3.95 µM in assay [1]; 16.1 µM in assay [2]; 6.19 µM in assay [3]; 12.8 µM in assay [8]; 18.4 µM in assay [5]; 14.2 µM in assay [9]. Further, the TGI in assay [10] stood at 6.03 µM; in assay [6] it was 3.11 µM; in assay [7], 4.06 µM.
